The record followed here is ChEMBL document CHEMBL3880416, “Inhibitors of AKT Activity” (2011).

By IC50 is commonly meant the concentration that inhibits the measured activity by half.

In assay [1] the target is RAC-alpha serine/threonine-protein kinase (Homo sapiens, UniProt P31749). The experiment in a line: Inhibition of full length human AKT1 expressed in Sf9 cells assessed as reduction in substrate phosphorylation using biotin-ahx-ARKRERAYSFGHHA-amide substrate and [gamma-33P]ATP incubated for 40 mins by top count microplate scintillation counting method.
RAC-alpha serine/threonine-protein kinase, sequence (P31749 whole entry): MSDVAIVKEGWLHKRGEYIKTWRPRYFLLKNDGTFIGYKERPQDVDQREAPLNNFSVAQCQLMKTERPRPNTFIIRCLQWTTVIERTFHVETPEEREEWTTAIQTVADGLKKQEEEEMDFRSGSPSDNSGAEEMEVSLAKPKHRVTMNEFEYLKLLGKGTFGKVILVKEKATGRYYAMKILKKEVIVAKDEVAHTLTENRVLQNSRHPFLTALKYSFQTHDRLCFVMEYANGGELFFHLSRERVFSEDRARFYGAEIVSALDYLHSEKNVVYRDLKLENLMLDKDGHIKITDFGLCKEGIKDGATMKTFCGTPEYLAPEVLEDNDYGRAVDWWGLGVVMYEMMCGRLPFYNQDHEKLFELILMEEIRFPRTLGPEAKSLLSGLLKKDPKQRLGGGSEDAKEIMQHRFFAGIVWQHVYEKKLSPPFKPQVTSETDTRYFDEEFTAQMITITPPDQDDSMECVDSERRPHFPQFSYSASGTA
Assay [2] has as its target RAC-gamma serine/threonine-protein kinase (Homo sapiens, UniProt Q9Y243). The assay is described as follows: Inhibition of full length human AKT3 expressed in Sf9 cells assessed as reduction in substrate phosphorylation using biotin-ahx-ARKRERAYSFGHHA-amide substrate and [gamma-33P]ATP incubated for 40 mins by top count microplate scintillation counting method.

RAC-gamma serine/threonine-protein kinase, sequence (Q9Y243 whole entry): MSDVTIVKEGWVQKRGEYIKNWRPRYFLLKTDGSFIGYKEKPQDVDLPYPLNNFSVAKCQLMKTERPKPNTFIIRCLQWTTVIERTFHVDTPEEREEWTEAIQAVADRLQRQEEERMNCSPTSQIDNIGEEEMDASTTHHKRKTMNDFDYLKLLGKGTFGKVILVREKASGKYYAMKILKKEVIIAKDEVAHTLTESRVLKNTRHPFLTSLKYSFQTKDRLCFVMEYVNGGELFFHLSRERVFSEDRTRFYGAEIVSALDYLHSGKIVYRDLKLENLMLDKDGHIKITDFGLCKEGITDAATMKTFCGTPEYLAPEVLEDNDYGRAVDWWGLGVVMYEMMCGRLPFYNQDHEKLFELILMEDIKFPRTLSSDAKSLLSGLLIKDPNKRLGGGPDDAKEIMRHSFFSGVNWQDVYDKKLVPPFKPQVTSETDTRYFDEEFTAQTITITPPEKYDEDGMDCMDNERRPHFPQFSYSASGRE

On to `Cn1ncc(Br)c1-c1cc(C(=O)N[C@H](CN)Cc2ccccc2C(F)(F)F)sc1Cl`, for which the IC50 in assay [1] is no more than 2.51 nM.

For the molecule `Cn1ncc(Cl)c1-c1cc(C(=O)N[C@H](CN)Cc2ccccc2C(F)(F)F)sc1Cl`, the IC50 in assay [1] is no more than 2.51 nM.

Turning to `CCn1ncc(Cl)c1-c1cc(C(=O)N[C@H](CN)Cc2ccc(F)c(F)c2)oc1Cl`, the IC50 in assay [1] was no more than 2.51 nM.

Consider `Cn1ncc(Cl)c1-c1cc(C(=O)N[C@H](CN)Cc2ccccc2C(F)(F)F)oc1Cl`, for which the IC50 in assay [1] is no more than 2.51 nM.

With `Cn1ncc(Br)c1-c1cc(C(=O)N[C@H](CN)Cc2ccc(F)cc2)sc1Cl`, the IC50 in assay [1] was no more than 2.51 nM.

As for `CCc1sc(C(=O)N[C@H](CN)Cc2cccc(F)c2)cc1-c1c(Cl)cnn1C`, the IC50 in assay [1] is no more than 2.51 nM.

`Cn1ncc(Br)c1-c1cc(C(=O)N[C@H](CN)Cc2cccc(C(F)(F)F)c2)sc1Cl`: the IC50 in assay [1] was no more than 2.51 nM.

With `Cn1ncc(Br)c1-c1cc(C(=O)N[C@H](CN)Cc2cccc(F)c2)sc1Cl`, the IC50 in assay [1] is no more than 2.51 nM.

Consider `Cn1nccc1-c1cc(C(=O)N[C@H](CN)Cc2ccc(F)c(F)c2)oc1Cl`, for which the IC50 in assay [1] was no more than 2.51 nM.

`CCn1ncc(Cl)c1-c1cc(C(=O)N[C@H](CN)Cc2ccc(F)cc2)sc1Cl`: in assay [1], the IC50 was no more than 2.51 nM.

As to `Cc1cnn(C)c1-c1cc(C(=O)N[C@H](CN)Cc2cccc(F)c2)sc1Cl`, the IC50 in assay [1] was no more than 2.51 nM.

As for `Cn1nccc1-c1cc(C(=O)N[C@H](CN)Cc2cccc(F)c2)sc1Cl`, the IC50 in assay [1] was no more than 2.51 nM.

Take `Cc1cnn(C)c1-c1cc(C(=O)N[C@H](CN)Cc2ccccc2C(F)(F)F)sc1Cl`: in assay [1], the IC50 is no more than 2.51 nM.

On to `Cn1ncc(Cl)c1-c1cc(C(=O)N[C@H](CN)Cc2ccc(F)c(F)c2)sc1Cl`, for which the results for the IC50 in assay [1] and in assay [2] were 1.58 to 2.51 nM and 3.16 to 25.1 nM, respectively.

With `COc1sc(C(=O)N[C@H](CN)Cc2cccc(F)c2)cc1-c1c(Cl)cnn1C`, the IC50 in assay [1] was no more than 2.51 nM.

For the molecule `Cc1cnn(C)c1-c1cc(C(=O)N[C@H](CN)Cc2cccc(F)c2)oc1Cl`, in assay [1], the IC50 is no more than 2.51 nM.

Take `CCn1ncc(Cl)c1-c1cc(C(=O)N[C@H](CN)Cc2ccc(F)c(F)c2)sc1Cl`: the IC50 in assay [1] is no more than 2.51 nM.
